Measured values as given in ChEMBL document CHEMBL1201862, “PubChem BioAssay data set” (2004).
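Compound exposure: 48 hours, 5 concentrations, 96-well plates. At the GI50, growth is halved.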 Calls of active or inactive are those of the source. Cut-off read from the data, not from the text of the source: active = GI50 up to about 1.1 µM and inactive = higher.

Tests used:
Assay in all cases: NCI-60 cell line screen, 48 h
[1] = test system: HCC 2998
[2] = test system: SW-620
[3] = test system: NCI-H522
[4] = test system: OVCAR-3
[5] = test system: LOX IMVI
[6] = test system: UACC-257
[7] = test system: UACC-62
[8] = test system: COLO 205
[9] = test system: K562
[10] = test system: U-251
[11] = test system: CCRF-CEM
[12] = test system: EKVX
[13] = test system: UO-31
[14] = test system: A549
[15] = test system: SF-539
[16] = test system: HT-29
[17] = test system: OVCAR-8

Measured: GI50

O=C1CCCC[C@H]1[C@H]1CCC[C@@H]([C@H]2CCCCC2=O)C1=O
inactive: [1] > 100 µM | [2] > 100 µM | [3] > 100 µM | [4] > 100 µM | [5] > 100 µM | [6] > 100 µM | [7] > 100 µM | [8] > 100 µM | [9] > 100 µM | [10] > 100 µM | [11] > 100 µM | [12] > 100 µM | [13] > 100 µM | [14] > 100 µM | [15] > 100 µM | [16] > 100 µM

Cc1ccc(S(=O)(=O)CNC(=S)CCCC(=S)NCS(=O)(=O)c2ccc(C)cc2)cc1
inactive: [1] > 100 µM | [2] 53.5 µM | [17] > 100 µM | [3] 41.4 µM | [4] 48.9 µM | [5] 18.6 µM | [6] > 100 µM | [7] 44.3 µM | [8] > 100 µM | [9] 53.6 µM | [10] 59 µM | [11] 21.3 µM | [12] > 100 µM | [13] 35.2 µM | [14] > 100 µM | [15] > 100 µM | [16] > 100 µM

COc1cccc2c1C(=O)c1c(O)c3c(c(O)c1C2=O)CC(O)(C(C)=O)CC3OC1CC([N+](C)(C)C)C(O)C(C)O1 (stereo not given)
inactive: [1] > 100 µM | [2] 56.1 µM | [17] 54.3 µM | [3] 31.3 µM | [4] > 100 µM | [5] 51.9 µM | [6] > 100 µM | [7] > 100 µM | [8] 48.1 µM | [9] 23.1 µM | [10] 55.1 µM | [11] 48.1 µM | [12] > 100 µM | [13] > 100 µM | [14] > 100 µM | [15] 47.2 µM | [16] 94.2 µM

COc1cc(C(=C2SCCS2)c2nccc3cc(OC)c(OC)cc23)c([N+](=O)[O-])cc1OC
inactive: [1] > 100 µM | [2] 62.1 µM | [17] > 100 µM | [3] 36.6 µM | [4] 40.9 µM | [5] 80.9 µM | [6] 34 µM | [7] 74.3 µM | [8] 35.3 µM | [9] 9.42 µM | [10] 64.7 µM | [11] 34.1 µM | [12] 54 µM | [13] 27.2 µM | [14] 39.4 µM | [15] > 100 µM | [16] 58.9 µM

COC(=O)N/N=C/C(=C/Nc1ccccc1)[N+](=O)[O-]
inactive: [1] > 100 µM | [2] > 100 µM | [17] > 100 µM | [3] 86.7 µM | [4] > 100 µM | [5] > 100 µM | [6] > 100 µM | [7] 46.2 µM | [8] > 100 µM | [9] > 100 µM | [10] > 100 µM | [11] > 100 µM | [12] > 100 µM | [13] > 100 µM | [14] > 100 µM | [16] > 100 µM

CC(=O)NC1C(OCc2ccccc2)OC(COC(=O)CCCCCCCCCCNc2ccc([N+](=O)[O-])c3[nH]c4ccccc4c(=O)c23)C(O)C1OC(C)C(=O)NC(C)C(=O)NC(CCC(N)=O)C(=O)OCc1ccccc1 (stereo not given)
inactive: [1] > 100 µM | [2] > 100 µM | [17] > 100 µM | [3] > 100 µM | [4] > 100 µM | [5] > 100 µM | [6] > 100 µM | [7] > 100 µM | [8] > 100 µM | [9] > 100 µM | [10] > 100 µM | [12] > 100 µM | [13] > 100 µM | [14] > 100 µM | [15] > 100 µM | [16] > 100 µM

CC1=C(C(=O)CC(=O)C(=O)Nc2cccc(Cl)c2C)Sc2ccccc2N1
inactive: [1] > 100 µM | [2] > 100 µM | [17] > 100 µM | [3] > 100 µM | [4] > 100 µM | [5] > 100 µM | [6] > 100 µM | [7] > 100 µM | [9] > 100 µM | [10] > 100 µM | [11] > 100 µM | [12] > 100 µM | [13] > 100 µM | [14] > 100 µM | [15] > 100 µM | [16] > 100 µM

Cc1c2cc[n+](C)cc2c(C)c2c1[nH]c1ccc(OC(C)(C)C)cc12
inactive: [1] > 100 µM | [2] > 100 µM | [17] > 100 µM | [3] > 100 µM | [5] > 100 µM | [6] > 100 µM | [7] > 100 µM | [8] > 100 µM | [9] > 100 µM | [10] > 100 µM | [11] > 100 µM | [13] > 100 µM | [14] > 100 µM | [15] > 100 µM | [16] > 100 µM
